Measurements: ChEMBL document CHEMBL1201862, “PubChem BioAssay data set” (2004)
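Briefly, cells in 96-well plates were exposed to five compound concentrations for 48 h, and endpoints were estimated by linear interpolation. GI50 marks 50% less growth.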 Activity calls are given as the source filed them. Cut-off read from the data, not from the text of the source: active = GI50 up to about 1.1 µM and inactive = higher.

Legend:
Assay in all cases: NCI anticancer screen, dose series, 48 h
DU-145 = test system: DU-145
Hs-578T = test system: Hs-578T
LOX IMVI = test system: LOX IMVI
MDA-MB-231 = test system: MDA-MB-231
MDA-MB-435 = test system: MDA-MB-435
Malme-3M = test system: Malme-3M
NCI-H522 = test system: NCI-H522
NCI/ADR-RES = test system: NCI/ADR-RES
OVCAR-4 = test system: OVCAR-4
OVCAR-5 = test system: OVCAR-5
RPMI-8226 = test system: RPMI-8226
RXF 393 = test system: RXF 393
SF-268 = test system: SF-268
SF-295 = test system: SF-295
SK-MEL-28 = test system: SK-MEL-28
SK-MEL-2 = test system: SK-MEL-2
SK-OV-3 = test system: SK-OV-3
SN12C = test system: SN12C
T47D = test system: T47D
TK-10 = test system: TK-10

| SMILES | GI50 (DU-145) | GI50 (Hs-578T) | GI50 (LOX IMVI) | GI50 (MDA-MB-231) | GI50 (MDA-MB-435) | GI50 (Malme-3M) | GI50 (NCI-H522) | GI50 (NCI/ADR-RES) | GI50 (OVCAR-4) | GI50 (OVCAR-5) | GI50 (RPMI-8226) | GI50 (RXF 393) | GI50 (SF-268) | GI50 (SF-295) | GI50 (SK-MEL-28) | GI50 (SK-MEL-2) | GI50 (SK-OV-3) | GI50 (SN12C) | GI50 (T47D) | GI50 (TK-10) |
| --- | --- | --- | --- | --- | --- | --- | --- | --- | --- | --- | --- | --- | --- | --- | --- | --- | --- | --- | --- | --- |
| CNC(=O)/C(=C/c1ccc(OC)cc1)c1cc(OC)c(OC)c(OC)c1 | 2.74 µM (inactive) | 1.61 µM (inactive) | 4.88 µM (inactive) | 6.14 µM (inactive) | 0.281 µM (active) | 0.887 µM (active) | 0.735 µM (active) | 1.98 µM (inactive) | 21.3 µM (inactive) | 20.7 µM (inactive) | 2.99 µM (inactive) | 1.99 µM (inactive) | 4.83 µM (inactive) | 0.552 µM (active) | 2.77 µM (inactive) | 3.89 µM (inactive) | 1.6 µM (inactive) | 5.2 µM (inactive) | > 100 µM (inactive) | > 44.1 µM (inactive) |
| O=C(/C=C/c1ccc2c(c1)OCO2)NCCc1ccco1 | > 100 µM (inactive) | 65.3 µM (inactive) | 78.5 µM (inactive) | 44.8 µM (inactive) | 64.7 µM (inactive) | 41.6 µM (inactive) | 37.9 µM (inactive) | 57.3 µM (inactive) | > 100 µM (inactive) | > 100 µM (inactive) | 21.8 µM (inactive) | > 100 µM (inactive) | > 100 µM (inactive) | 54.8 µM (inactive) | > 100 µM (inactive) | > 100 µM (inactive) | > 100 µM (inactive) | > 100 µM (inactive) | 26.5 µM (inactive) | 65.8 µM (inactive) |
| S=c1[nH]nc(COc2ccc3c(c2)CCCC3)n1/N=C/c1ccc(Cl)cc1 | 15.5 µM (inactive) | 21.6 µM (inactive) | 20.2 µM (inactive) | 24.1 µM (inactive) | 19.3 µM (inactive) | 17 µM (inactive) | 14.1 µM (inactive) | 17.6 µM (inactive) | 18.1 µM (inactive) | 17.9 µM (inactive) | 17.3 µM (inactive) | 14.4 µM (inactive) | 17.9 µM (inactive) | 17.8 µM (inactive) | 18.2 µM (inactive) | 18.2 µM (inactive) | 18.1 µM (inactive) | 22.8 µM (inactive) | 12.1 µM (inactive) | 20.1 µM (inactive) |
| O=S(=O)(O)SCCNCCCCCC1CCCCC1 | 6.3 µM (inactive) | 14.5 µM (inactive) | 2.14 µM (inactive) | 14.8 µM (inactive) | 3.44 µM (inactive) | 18.8 µM (inactive) | 18.4 µM (inactive) | 16.7 µM (inactive) | 17.2 µM (inactive) | 9.64 µM (inactive) | 17.1 µM (inactive) | 17.1 µM (inactive) | 3.05 µM (inactive) | 5.86 µM (inactive) | 4.26 µM (inactive) | 2.87 µM (inactive) | 15.7 µM (inactive) | 6.12 µM (inactive) | 13.6 µM (inactive) | 9.38 µM (inactive) |
| Fc1ccc(C(OCCN2CC3CC2CN3)c2ccc(F)cc2)cc1 (stereo not drawn) | > 100 µM (inactive) | 57.3 µM (inactive) | 50.9 µM (inactive) | 46.8 µM (inactive) | 23.1 µM (inactive) | 16.7 µM (inactive) | 47.3 µM (inactive) | 97.9 µM (inactive) | > 100 µM (inactive) | – | 26.1 µM (inactive) | 27.4 µM (inactive) | > 100 µM (inactive) | 83.2 µM (inactive) | 21.8 µM (inactive) | 19.1 µM (inactive) | > 100 µM (inactive) | – | 35.2 µM (inactive) | 32.8 µM (inactive) |
| O=C(O)CC(Cc1ccc2c(c1)OCO2)C(=O)O (stereo not drawn) | > 100 µM (inactive) | > 100 µM (inactive) | > 100 µM (inactive) | > 100 µM (inactive) | > 100 µM (inactive) | > 100 µM (inactive) | > 100 µM (inactive) | > 100 µM (inactive) | > 100 µM (inactive) | > 100 µM (inactive) | > 100 µM (inactive) | > 100 µM (inactive) | > 100 µM (inactive) | > 100 µM (inactive) | > 100 µM (inactive) | > 100 µM (inactive) | > 100 µM (inactive) | > 100 µM (inactive) | > 100 µM (inactive) | > 100 µM (inactive) |
| COc1cc(/C=C/C(=N\NC(N)=S)c2sc(NNC(C)=O)nc2C)ccc1O | > 100 µM (inactive) | > 100 µM (inactive) | > 100 µM (inactive) | > 100 µM (inactive) | > 100 µM (inactive) | > 100 µM (inactive) | > 100 µM (inactive) | > 100 µM (inactive) | > 100 µM (inactive) | > 100 µM (inactive) | > 100 µM (inactive) | > 100 µM (inactive) | > 100 µM (inactive) | > 100 µM (inactive) | > 100 µM (inactive) | > 100 µM (inactive) | > 100 µM (inactive) | > 100 µM (inactive) | > 100 µM (inactive) | > 100 µM (inactive) |
| CNC(C)C(O)c1ccc2oc3cc(=O)c4ccccc4c-3nc2c1 (stereo not drawn) | 5.31 µM (inactive) | 2.26 µM (inactive) | 4.1 µM (inactive) | 45.5 µM (inactive) | 1.97 µM (inactive) | 5.64 µM (inactive) | 13.3 µM (inactive) | 14.4 µM (inactive) | 17.3 µM (inactive) | 32.5 µM (inactive) | 18.9 µM (inactive) | 25.8 µM (inactive) | 27.2 µM (inactive) | 4.59 µM (inactive) | 11.5 µM (inactive) | 4.69 µM (inactive) | 40.1 µM (inactive) | 10.6 µM (inactive) | 31.6 µM (inactive) | 38.7 µM (inactive) |
| CN1CCC2(CC1)C(=O)N(N1CCCCCC1)C(=O)N2c1ccccc1 | > 100 µM (inactive) | 42.2 µM (inactive) | > 100 µM (inactive) | > 100 µM (inactive) | > 100 µM (inactive) | > 100 µM (inactive) | 57.7 µM (inactive) | > 100 µM (inactive) | > 100 µM (inactive) | > 100 µM (inactive) | > 100 µM (inactive) | 31.3 µM (inactive) | > 100 µM (inactive) | > 100 µM (inactive) | > 100 µM (inactive) | > 100 µM (inactive) | > 100 µM (inactive) | > 100 µM (inactive) | > 100 µM (inactive) | > 100 µM (inactive) |
| c1ccc(CN[C@]23C4C5CC6C7C5C2C7[C@@](NCc2ccccc2)(C64)N3Cc2ccccc2)cc1 (stereo partly drawn) | > 100 µM (inactive) | > 100 µM (inactive) | > 100 µM (inactive) | > 100 µM (inactive) | > 100 µM (inactive) | > 100 µM (inactive) | 91.8 µM (inactive) | > 100 µM (inactive) | > 100 µM (inactive) | > 100 µM (inactive) | > 100 µM (inactive) | > 100 µM (inactive) | > 100 µM (inactive) | > 100 µM (inactive) | > 100 µM (inactive) | > 100 µM (inactive) | > 100 µM (inactive) | > 100 µM (inactive) | > 100 µM (inactive) | > 100 µM (inactive) |
